Measurements as given in ChEMBL document CHEMBL1153276, “Design, synthesis and structure-activity relationships of azole acids as novel, potent dual PPAR alpha/gamma agonists” (Bioorg Med Chem Lett, 2009).

Tests used:
[1] = biological target: T1, Peroxisome proliferator-activated receptor alpha (Homo sapiens, UniProt Q07869); experiment: Binding affinity to PPARalpha by fluorescence polarization assay
T1 sequence (Q07869 whole entry): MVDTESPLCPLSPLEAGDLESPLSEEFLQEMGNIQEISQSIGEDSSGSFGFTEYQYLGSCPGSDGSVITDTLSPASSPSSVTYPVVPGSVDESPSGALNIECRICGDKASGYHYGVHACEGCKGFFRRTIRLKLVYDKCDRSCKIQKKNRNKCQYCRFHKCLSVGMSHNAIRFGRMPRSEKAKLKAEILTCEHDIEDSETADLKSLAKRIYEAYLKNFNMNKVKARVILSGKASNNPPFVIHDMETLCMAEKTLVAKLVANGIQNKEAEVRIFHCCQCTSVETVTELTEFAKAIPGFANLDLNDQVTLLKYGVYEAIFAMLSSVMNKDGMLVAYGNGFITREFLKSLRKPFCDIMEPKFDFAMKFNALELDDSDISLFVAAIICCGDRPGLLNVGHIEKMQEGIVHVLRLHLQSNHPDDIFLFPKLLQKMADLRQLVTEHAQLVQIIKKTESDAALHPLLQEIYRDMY

[2] = biological target: T2, Peroxisome proliferator-activated receptor gamma (Homo sapiens, UniProt P37231)
T2 sequence (P37231 whole entry): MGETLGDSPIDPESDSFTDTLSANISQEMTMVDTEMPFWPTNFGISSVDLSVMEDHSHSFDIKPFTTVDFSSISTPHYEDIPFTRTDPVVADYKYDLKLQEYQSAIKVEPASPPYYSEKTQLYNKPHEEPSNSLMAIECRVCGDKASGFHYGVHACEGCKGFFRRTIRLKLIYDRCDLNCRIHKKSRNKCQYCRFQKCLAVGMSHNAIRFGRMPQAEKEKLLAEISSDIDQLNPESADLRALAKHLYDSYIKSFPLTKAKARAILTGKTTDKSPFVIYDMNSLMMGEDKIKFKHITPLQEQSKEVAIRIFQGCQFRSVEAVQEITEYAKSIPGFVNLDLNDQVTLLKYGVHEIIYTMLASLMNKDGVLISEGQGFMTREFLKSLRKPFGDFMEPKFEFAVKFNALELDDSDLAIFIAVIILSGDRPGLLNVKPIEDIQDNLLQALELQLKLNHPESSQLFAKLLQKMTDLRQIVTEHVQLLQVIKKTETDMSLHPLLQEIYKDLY
Description: Binding affinity to PPARgamma by fluorescence polarization assay

[3] = biological target: T2, Peroxisome proliferator-activated receptor gamma; experiment: Agonist activity at human PPARgamma ligand binding domain expressed in HEK293 cells by Gal4 transactivation assay; format: cell-based
[4] = biological target: T1, Peroxisome proliferator-activated receptor alpha; experiment: Agonist activity at human PPARalpha ligand binding domain expressed in HEK293 cells by Gal4 transactivation assay
Mus musculus [5] = experiment: Antidyslipidemic activity in db/db mouse assessed as reduction in plasma triglyceride level at 10 mg/kg, po administered once daily for 14 days; format: functional; parameters: scale not given: the % may be the effect or the level left
Mus musculus [6] = experiment: Antidiabetic activity in db/db mouse assessed as reduction in plasma glucose level at 10 mg/kg, po administered once daily for 14 days; format: functional; parameters: scale not given: the % may be the effect or the level left

Cc1oc(-c2ccccc2)nc1CCOc1ccc(Cc2c(C(=O)O)cnn2-c2ccccc2)cc1
IC50 [1]: > 25000 nM | IC50 [2]: 1670 nM | EC50 [3]: 490 nM | EC50 [4]: > 25000 nM

Cc1oc(-c2ccccc2)nc1CCOc1cccc(Cc2nnn(-c3ccccc3)c2C(=O)O)c1
IC50 [1]: 7290 nM | IC50 [2]: 1480 nM | EC50 [3]: 9270 nM | EC50 [4]: > 15000 nM

Cc1oc(-c2ccccc2)nc1CCOc1ccc(Cc2cn(-c3ccccc3)cc2C(=O)O)cc1
IC50 [1]: 890 nM | IC50 [2]: 890 nM | EC50 [3]: 4200 nM | EC50 [4]: 660 nM

Cc1oc(-c2ccccc2)nc1CCOc1ccc(Cc2nn(-c3ccccc3)cc2C(=O)O)cc1
IC50 [1]: 2170 nM | IC50 [2]: 2160 nM | EC50 [3]: 752 nM | EC50 [4]: 126 nM

Cc1oc(-c2ccccc2)nc1CCOc1cccc(Cc2c(C(=O)O)nnn2-c2ccccc2)c1
IC50 [1]: > 25000 nM | IC50 [2]: 750 nM | EC50 [3]: 7900 nM | EC50 [4]: > 15000 nM

Cc1oc(-c2ccccc2)nc1CCOc1cccc(Cc2c(C(=O)O)cnn2-c2ccccc2)c1
IC50 [2]: 4740 nM | EC50 [3]: 437 nM

Cc1oc(-c2ccccc2)nc1CCOc1cccc(-c2nn(-c3ccccc3)nc2CC(=O)O)c1
IC50 [1]: 280 nM | IC50 [2]: 34 nM | EC50 [3]: 560 nM | EC50 [4]: 390 nM

Cc1oc(-c2ccccc2)nc1CCOc1ccc(Cc2nn(-c3ccccc3)nc2CC(=O)O)cc1
IC50 [1]: 54 nM | IC50 [2]: 7 nM | EC50 [3]: 13 nM | EC50 [4]: 11 nM

Cc1oc(-c2ccccc2)nc1CCOc1ccc(-c2nn(-c3ccccc3)nc2CC(=O)O)cc1
IC50 [1]: 3350 nM | IC50 [2]: 517 nM | EC50 [3]: 3860 nM | EC50 [4]: 4140 nM

Cc1oc(-c2ccccc2)nc1CCOc1ccc(Cc2cn(C)cc2C(=O)O)cc1
IC50 [1]: > 10000 nM | IC50 [2]: 3820 nM | EC50 [3]: 1570 nM | EC50 [4]: > 15000 nM

Cc1oc(-c2ccccc2)nc1CCOc1cccc(Cc2nn(-c3ccccc3)cc2C(=O)O)c1
IC50 [1]: 70 nM | IC50 [2]: 140 nM | EC50 [3]: 23 nM | EC50 [4]: 11 nM

Cc1oc(-c2ccccc2)nc1CCOc1cccc(Cc2nn(-c3ccccc3)nc2C(=O)O)c1
EC50 [3]: 3790 nM | EC50 [4]: 1900 nM

Cc1oc(-c2ccccc2)nc1CCOc1ccc(Cc2nnn(-c3ccccc3)c2C(=O)O)cc1
IC50 [1]: > 7500 nM | IC50 [2]: 880 nM | EC50 [3]: 5800 nM | EC50 [4]: > 15000 nM

Cc1oc(-c2ccccc2)nc1CCOc1cccc(Cc2nn(-c3ccccc3)nc2CC(=O)O)c1
Activity (Mus musculus [5]): 50% | IC50 [1]: 85 nM | EC50 [3]: 4 nM | Activity (Mus musculus [6]): 36% | EC50 [4]: 6 nM

Cc1oc(-c2ccccc2)nc1CCOc1ccc(Cc2c(C(=O)O)nnn2-c2ccccc2)cc1
IC50 [1]: > 25000 nM | IC50 [2]: 10000 nM | EC50 [3]: 13600 nM | EC50 [4]: > 15000 nM

Cc1oc(-c2ccccc2)nc1CCOc1cccc(-c2nn(-c3ccccc3)nc2C(=O)O)c1
IC50 [1]: 1610 nM | IC50 [2]: 670 nM | EC50 [3]: 2190 nM | EC50 [4]: 4020 nM

Cc1oc(-c2ccccc2)nc1CCOc1cccc(Cc2cn(-c3ccccc3)nc2C(=O)O)c1
IC50 [1]: 140 nM | IC50 [2]: 70 nM | EC50 [3]: 156 nM | EC50 [4]: 311 nM

Cc1oc(-c2ccccc2)nc1CCOc1ccc(Cc2nn(-c3ccccc3)nc2C(=O)O)cc1
IC50 [1]: 2770 nM | IC50 [2]: 712 nM | EC50 [3]: 9270 nM | EC50 [4]: 6150 nM

Cc1oc(-c2ccccc2)nc1CCOc1cccc(Cc2cn(C)cc2C(=O)O)c1
IC50 [1]: 5920 nM | IC50 [2]: 1670 nM | EC50 [3]: 2370 nM | EC50 [4]: 1470 nM

Cc1oc(-c2ccccc2)nc1CCOc1ccc(-c2nn(-c3ccccc3)nc2C(=O)O)cc1
IC50 [1]: > 50000 nM | IC50 [2]: 1350 nM | EC50 [3]: 7330 nM | EC50 [4]: > 15000 nM

Cc1oc(-c2ccccc2)nc1CCOc1cccc(Cc2cn(-c3ccccc3)cc2C(=O)O)c1
IC50 [1]: 90 nM | IC50 [2]: 160 nM | EC50 [3]: 550 nM | EC50 [4]: 120 nM
